These results are taken from patent EP1342719B1, “Benzodiazepine derivatives useful as CCK-Receptor Antagonists” (Ferring BV, priority 1992, dated 1993).

pIC50: −log10 of the molar value. Like-named read-outs stand apart in the source and are kept apart here.

Assay [1] has as its system pentagastrin-stimulated gastric acid secretion. Kind of assay: Inhibition of pentagastrin-stimulated gastric acid secretion in dog (Heidenhain pouch). It is filed as in vivo, male beagle dogs. As to conditions: maximum inhibition of stimulated acid output, oral, pentagastrin 8 µg/kg/hr infusion, mean for 3 - 5 animals. As for the experimental part: Assays were performed using male beagle dogs (7 - 12 kg) two months after surgical preparation of Heidenhain pouches following the conventional procedure. Each dog was used only once per week.
The animals were deprived of food with free access to water for 18 hr prior to the experiment. The gastric juice was collected from the gastric canula by gravity drainage every 15 min, and acid output was determined by automatic titration with 0.05 N NaOH to pH 7.0 (Comtite-7, Hiranuma, Tokyo, Japan). Drugs were administered orally 3 hr after the start of the pentagastrin (8 µg/kg/hr) infusion. The effect of each drug was calculated as the percentage inhibition of stimulated acid output. […] Each result is a mean for 3 - 5 animals.

In assay [2] the target is T1, CCK-B receptors (Rattus norvegicus, UniProt P30553).
T1 construct: the whole brain was immediately excised from each of the rats and homogenized; from tissue; host or cells: SD rat whole-brain membrane preparation
T1 sequence (P30553 whole entry): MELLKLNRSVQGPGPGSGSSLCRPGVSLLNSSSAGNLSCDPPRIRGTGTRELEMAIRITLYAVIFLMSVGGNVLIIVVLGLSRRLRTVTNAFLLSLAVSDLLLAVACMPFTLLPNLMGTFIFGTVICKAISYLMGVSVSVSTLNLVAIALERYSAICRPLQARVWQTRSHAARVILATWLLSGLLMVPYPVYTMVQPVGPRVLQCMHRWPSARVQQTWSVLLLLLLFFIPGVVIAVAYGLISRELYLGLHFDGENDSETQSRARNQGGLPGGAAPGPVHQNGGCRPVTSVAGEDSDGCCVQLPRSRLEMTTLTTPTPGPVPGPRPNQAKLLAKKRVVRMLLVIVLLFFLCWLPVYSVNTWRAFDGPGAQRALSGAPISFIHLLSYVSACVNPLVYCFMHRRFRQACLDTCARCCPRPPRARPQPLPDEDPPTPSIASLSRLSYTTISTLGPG
Kind of assay: Measurement of binding affinity for CCK-B receptors ([125I]BH-CCK-8 displacement, brain membrane preparation). Details: species or system SD rats. As to conditions: for A/B Ratio: selectivity, ratio IC50 (CCK-A)/IC50 (CCK-B); for IC50: rat whole brain membranes, [125I]BH-CCK-8, 25°C, 120 minutes, read-out: Receptor binding affinity IC50(nM) CCK-B. As for the experimental part: About 100 SD rats were decapitated without anaesthesia, the whole brain was immediately excised from each of the rats and homogenized in 10-fold volume of 0.32 M aqueous solution of sucrose by the use of a Teflon-coated homogenizer, the homogenate thus obtained was centrifuged for ten minutes at 900 g by the use of a cooled centrifuge, and the supernatant was further centrifuged for 15 minutes at 11500 g. The precipitate thus obtained was dispersed in 50 mM Tris-HCl buffer (pH 7.4) containing 0.08% Triton X-100, this suspension was allowed to stand for 30 minutes and again centrifuged for 15 minutes at 11500 g, the precipitate thus obtained was washed twice with 5 mM Tris-HCl buffer and twice with 50 mM Tris-HCl buffer in that order with centrifugal separation, the washed precipitate was suspended in 50 mM Tris-HCl buffer, and the suspension thus obtained was stored at -80°C until the membrane preparation was required.
The membrane preparations were warmed to room temperature, diluted with 10 mM HEPES buffer (containing 130 mM NaCl, 5 mM MgCl2, 1 mM EGTA and 0.25 mg/ml bacitracin; pH 6.5) and incubated at 25°C for 120 minutes in the presence of [^125I]BH-CCK-8 and the test compound, then separated by suction filtration. Non-specific binding was determined in the presence of 1 µM CCK-8. The amount of labelled ligand bound to the receptor was measured by the use of a γ-counter; IC50 values were determined, being that concentration of test compound required to inhibit specific binding by 50%.

Assay [3] addresses T2, CCK-A receptors (Rattus norvegicus, UniProt P30551).
T2 construct: The pancreas of an SD rat was homogenized; from tissue; host or cells: SD rat pancreas membrane preparation
T2 sequence (P30551 1-444): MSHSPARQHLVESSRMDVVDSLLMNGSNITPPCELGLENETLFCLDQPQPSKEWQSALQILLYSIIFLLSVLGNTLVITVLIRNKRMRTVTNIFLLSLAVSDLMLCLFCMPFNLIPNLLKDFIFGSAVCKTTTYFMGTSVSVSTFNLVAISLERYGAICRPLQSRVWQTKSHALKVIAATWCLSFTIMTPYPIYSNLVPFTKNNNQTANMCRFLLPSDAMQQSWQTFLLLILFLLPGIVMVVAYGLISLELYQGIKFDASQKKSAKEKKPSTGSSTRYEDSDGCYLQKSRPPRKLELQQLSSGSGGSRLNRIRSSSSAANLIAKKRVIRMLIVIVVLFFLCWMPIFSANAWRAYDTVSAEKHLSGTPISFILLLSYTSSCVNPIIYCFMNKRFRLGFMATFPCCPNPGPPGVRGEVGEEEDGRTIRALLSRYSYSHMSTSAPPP
As to the kind of experiment: Measurement of binding affinity for CCK-A receptors ([3H]L-364,718 displacement, pancreas membrane preparation). Details: species or system SD rat. As to conditions: for IC50: rat pancreas membranes, [3H]L-364,718, 37°C, 30 minutes, read-out: Receptor binding affinity IC50(nM) CCK-A. Here is the method:
The pancreas of an SD rat was homogenized in a 20-fold volume of 50 mM Tris-HCl buffer (pH 7.7) by the use of a Polytrone-type homogenizer, the homogenate was twice centrifuged for 10 minutes at 50000 g by the use of an ultra-centrifuge, the precipitate thus obtained was suspended in a 40-fold volume of 50 mM Tris-HCl buffer (containing 0.2% BSA, 5 mM MgCl2, 0.1 mg/ml bacitracin and 5 mM DTT; pH 7.7), and the suspension was stored at -80°C until the membrane preparations were required.
The membrane preparations were then warmed to room temperature, diluted 1:10 with the buffer and incubated at 37°C for 30 minutes in the presence of [^3H]L-364,718 and the test compound then separated by suction filtration. Non-specific binding was determined in the presence of 1 µM L-364,718. The amount of labelled ligand bound to the receptor was measured by the use of a liquid scintillation counter; IC50 values were determined, being that concentration of test compound required to inhibit specific binding by 50%

As for `Cc1cccc(NC(=O)NC2N=C(c3ccccn3)c3ccccc3N(CC(=O)C(C)(C)C)C2=O)c1` (racemic) [Example 27, N-((3RS)-1-tert-Butylcarbonylmethyl-2,3-dihydro-2-oxo-5-(2-pyridyl)-1H-1,4-benzodiazepin-3-yl)-N'-(3-methylphenyl) urea], in assay [1] (3 µmol/kg), the “Inhibidon (dose)” value is 66% (3 µmol/kg).
As a reminder, the pIC50 is −log10 of the IC50, conventionally taken in molar units. A low value points to a large IC50. For `CCC(C)(C)C(=O)CN1C(=O)C(NC(=O)Nc2cccc(C)c2)N=C(c2ccccc2)c2ccccc21` (racemic) [Example 36, N-((3RS)-1-tert-Amylcarbonylmethyl-2,3-dihydro-2-oxo-5-phenyl-1H-1,4-benzodiazepin-3-yl)-N'-(3-methylphenyl) urea], in assay [2], the pIC50 was 9.24 and the “A/B Ratio” value was 1,300. In assay [3], this compound gave a pIC50 of 6.14.
In the same order, the values of `CCC(C)(C)C(=O)CN1C(=O)C(NC(=O)Nc2cccc(C(=O)O)c2)N=C(c2ccccc2)c2ccccc21` (racemic) [Example 37, N-((3RS)-1-tert-Amylcarbonylmethyl-2,3-dihydro-2-oxo-5-phenyl-1H-1,4-benzodiazepin-3-yl)-N'-(3-carboxyphenyl) urea] are 8.96, 5,100 and 5.25.
With `CN(C)c1cccc(NC(=O)NC2N=C(c3ccccn3)c3ccccc3N(CC(=O)C(C)(C)C)C2=O)c1` (racemic) [Example 38, N-((3RS)-1-tert-Butylcarbonylmethyl-2,3-dihydro-2-oxo-5-(2-pyridyl)-1H-1,4-benzodiazepin-3-yl)-N'-(3-dimethylaminophenyl) urea], the “Inhibidon (dose)” value in assay [1] (3 µmol/kg) is recorded as 100% (3 µmol/kg).
Take `CC(C)(C)C(=O)CN1C(=O)C(NC(=O)Nc2cccc(C(=O)O)c2)N=C(c2ccccn2)c2ccccc21` (racemic) [Example 39, N-((3RS)-1-tert-Butylcarbonylmethyl-2,3-dihydro-2-oxo-5-(2-pyridyl)-1H-1,4-benzodiazepin-3-yl)-N'-(3-carboxyphenyl) urea]: in assay [2], the pIC50 was 10.00 and the “A/B Ratio” value is on record as 2,400. In assay [3], this compound showed a pIC50 of 6.62.
On the same counts, the results for `CN(C)c1cccc(NC(=O)NC2N=C(c3ccccc3)c3ccccc3N(CC(=O)C(C)(C)C)C2=O)c1` (racemic) [Example 41, N-((3RS)-1-tert-Butylcarbonylmethyl-2,3-dihydro-2-oxo-5-phenyl-1H-1,4-benzodiazepin-3-yl)-N'-(3-dimethylaminophenyl) urea] are 8.21, 1,100 and 5.17.
Regarding `CC(C)(C)C(=O)CN1C(=O)C(NC(=O)Nc2cccc([N+](=O)[O-])c2)N=C(c2ccccc2)c2ccccc21` (racemic) [Example 45, N-((3RS)-1-tert-Butylcarbonylmethyl-2,3-dihydro-2-oxo-5-phenyl-1H-1,4-benzodiazepin-3-yl)-N'-(3-nitrophenyl) urea], in assay [2], the “A/B Ratio” value is reported as 3,700. This compound also had a pIC50 in assay [3] of 6.23.
For `Cc1cccc(NC(=O)N[C@@H]2N=C(c3ccccc3)c3ccccc3N(CC(=O)C(C)(C)C)C2=O)c1` [Example 26, N-((3R)-1-tert-Butylcarbonylmethyl-2,3-dihydro-2-oxo-5-phenyl-1H-1,4-benzodiazepin-3-yl)-N'-(3-methylphenyl) urea], the “Inhibidon (dose)” value in assay [1] (3 µmol/kg) was 53% (3 µmol/kg).
By IC50 is commonly meant the concentration at which inhibition is half-maximal. With `CNc1cccc(NC(=O)N[C@@H]2N=C(c3ccccc3)c3ccccc3N(CC(=O)C(C)(C)C)C2=O)c1` [Example 56, N-((3R)-1-tert-Butylcarbonylmethyl-2,3-dihydro-2-oxo-5-phenyl-1H-1,4-benzodiazepin-3-yl)-N'-(3-methylaminophenyl) urea], in assay [2], the IC50 is 0.11 nM and the “A/B Ratio” value is listed as 1,100. In addition, the IC50 in assay [3] stood at 120 nM.
For `CN(C)c1cccc(NC(=O)N[C@@H]2N=C(c3ccccc3)c3ccccc3N(CC(=O)C(C)(C)C)C2=O)c1` [Example 64, N-((3R)-1-tert-Butylcarbonylmethyl-2,3-dihydro-2-oxo-5-phenyl-1H-1,4-benzodiazepin-3-yl)-N'-(3-dimethylaminophenyl) urea], the “Inhibidon (dose)” value in assay [1] (3 µmol/kg) was 100% (3 µmol/kg).
For the compound `CC(C)(C)C(=O)CN1C(=O)[C@H](NC(=O)Nc2cccc(N)c2)N=C(c2ccccc2)c2ccccc21` [Example 66, N-((3R)-1-tert-Butylcarbonylmethyl-2,3-dihydro-2-oxo-5-phenyl-1H-1,4-benzodiazepin-3-yl)-N'-(3-aminophenyl) urea], in assay [2], the IC50 is 0.5 nM and the “A/B Ratio” value is listed as 1,900. Also, in assay [3], the concentration for half-maximal inhibition (IC50) stood at 950 nM.
Regarding `Cc1cccc(NC(=O)N[C@@H]2N=C(c3ccccc3)c3ccccc3N(C)C2=O)c1` [reference compound], in assay [2], the IC50 came to 29 nM and the “A/B Ratio” value was 410. Also, the IC50 in assay [3] was 12000 nM. For the same compound, the “Inhibidon (dose)” value in assay [1] (100 µmol/kg) is reported as 0% (100 µmol/kg).
